{"source": "patent US6369046B1", "about": "“Methods for treating dementia” (The Board of Trustees of the Leland Stanford Junior …, priority 1998, dated 2002)", "origin": "cited, not measured here", "key": {"[1]": {"target": "T1, glucocorticoid (GR) receptor (Homo sapiens, UniProt P04150)", "T1 sequence (P04150 1-777)": "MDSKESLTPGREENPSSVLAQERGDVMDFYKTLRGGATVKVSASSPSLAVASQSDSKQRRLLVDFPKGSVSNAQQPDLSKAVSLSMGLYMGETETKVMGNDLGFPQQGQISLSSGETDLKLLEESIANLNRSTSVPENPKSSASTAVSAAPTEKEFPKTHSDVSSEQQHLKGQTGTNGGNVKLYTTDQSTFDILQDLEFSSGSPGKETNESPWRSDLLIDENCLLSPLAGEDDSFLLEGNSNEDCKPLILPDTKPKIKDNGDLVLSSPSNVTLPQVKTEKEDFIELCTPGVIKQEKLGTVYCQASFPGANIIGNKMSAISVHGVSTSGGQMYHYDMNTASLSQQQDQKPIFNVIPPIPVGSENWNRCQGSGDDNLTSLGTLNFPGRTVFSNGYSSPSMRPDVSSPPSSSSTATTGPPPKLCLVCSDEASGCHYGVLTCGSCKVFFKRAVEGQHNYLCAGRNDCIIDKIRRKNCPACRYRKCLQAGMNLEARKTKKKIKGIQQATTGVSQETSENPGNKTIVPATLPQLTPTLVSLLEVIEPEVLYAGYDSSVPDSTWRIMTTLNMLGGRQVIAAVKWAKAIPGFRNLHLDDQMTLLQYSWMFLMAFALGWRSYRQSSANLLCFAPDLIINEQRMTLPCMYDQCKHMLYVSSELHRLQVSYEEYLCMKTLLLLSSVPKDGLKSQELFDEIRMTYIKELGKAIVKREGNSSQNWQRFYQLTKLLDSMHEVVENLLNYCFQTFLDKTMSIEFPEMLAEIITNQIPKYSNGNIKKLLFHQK", "conditions": "Bocquel (1993) for RU009; cited from earlier work"}, "[2]": {"target": "T2, progesterone receptor (Homo sapiens, UniProt P06401)", "T2 sequence (P06401 1-933)": "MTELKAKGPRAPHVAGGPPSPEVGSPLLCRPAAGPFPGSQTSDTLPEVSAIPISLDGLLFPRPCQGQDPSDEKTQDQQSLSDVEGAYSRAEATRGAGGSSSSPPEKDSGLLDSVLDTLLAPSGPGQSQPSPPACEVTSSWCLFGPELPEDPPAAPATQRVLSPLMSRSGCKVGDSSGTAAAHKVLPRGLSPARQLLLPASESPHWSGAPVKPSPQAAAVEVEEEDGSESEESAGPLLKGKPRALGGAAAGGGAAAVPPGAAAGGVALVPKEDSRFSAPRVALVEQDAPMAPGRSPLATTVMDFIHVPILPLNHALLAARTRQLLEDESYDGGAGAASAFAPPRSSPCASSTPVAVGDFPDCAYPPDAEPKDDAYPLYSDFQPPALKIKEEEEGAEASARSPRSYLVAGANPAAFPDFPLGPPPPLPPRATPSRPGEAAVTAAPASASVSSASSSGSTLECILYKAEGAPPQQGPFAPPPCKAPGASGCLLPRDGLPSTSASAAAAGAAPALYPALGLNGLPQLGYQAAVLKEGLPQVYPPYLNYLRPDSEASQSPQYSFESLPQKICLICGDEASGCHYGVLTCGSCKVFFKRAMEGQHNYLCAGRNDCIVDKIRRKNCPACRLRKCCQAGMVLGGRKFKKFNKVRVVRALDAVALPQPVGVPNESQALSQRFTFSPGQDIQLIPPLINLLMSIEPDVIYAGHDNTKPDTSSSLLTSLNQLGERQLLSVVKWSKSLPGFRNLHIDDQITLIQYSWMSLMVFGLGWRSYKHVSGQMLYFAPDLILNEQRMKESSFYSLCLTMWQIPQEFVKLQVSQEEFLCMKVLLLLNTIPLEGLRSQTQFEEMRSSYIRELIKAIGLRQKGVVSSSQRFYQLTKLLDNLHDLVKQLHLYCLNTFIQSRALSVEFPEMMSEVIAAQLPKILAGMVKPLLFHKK", "conditions": "cited from earlier work"}, "[3]": {"conditions": "Kawai (1989) supra; cited from earlier work"}}, "data": [{"molecule": "CC#C[C@]1(O)CC[C@H]2[C@@H]3CCC4=CC(=O)CCC4=C3[C@@H](c3ccc(OCCN(C)C)cc3)C[C@@]21C", "note": "[RU009, 11-beta-(4-dimethyl-aminoethoxyphenyl)-1 7-alpha-(propynyl-17 beta-hydroxy-4,9-estradien-3-one)]", "values": [{"measurement": "GR antagonism", "setting": "[1]", "value": "GR antagonist effects"}]}, {"molecule": "CC#C[C@]1(O)CC[C@H]2[C@@H]3CCC4=CC(=O)CCC4=C3[C@@H](c3ccc(N(C)C)cc3)C[C@@]21C", "note": "[mifepristone, 17-beta-hydroxy-11-beta-(4-dimethyl-aminophenyl)-17-alpha-(1-propynyl)-estra-4,9-dien-3-one]", "values": [{"measurement": "progesterone receptor antagonism", "setting": "[2]", "value": "powerful antagonist"}, {"measurement": "fraction of the daily dose excreted in the urine", "setting": "[3]", "value": "less than 0.5 % of the daily dose"}, {"measurement": "GR antagonism", "setting": "[1]", "value": "powerful antagonist"}]}]}
